From ChEMBL document CHEMBL5096221, “Discovery of a Highly Potent and Orally Bioavailable STAT3 Dual Phosphorylation Inhibitor for Pancreatic Cancer Treatment” (J Med Chem, 2022)
Calls of active or inactive are those of the source. The calls are words filed in the database; no cut-off is given here.

What was measured:
Capan-2 = test: Anti-proliferative activity against human Capan-2 cells assessed as cell growth inhibition incubated for 72 hrs by MTS assay; format: functional, cell-based; conditions: Capan-2, 72 h
Cytochrome P450 2D6 = Cytochrome P450 2D6 (Homo sapiens, UniProt P10635); test: Inhibition of CYP2D6 in human liver microsomes using dextromethorphan as substrate incubated for 60 mins in presence of NADPH by HPLC analysis; format: ADME, Microsome
Chain of Cytochrome P450 2D6 (P10635 whole entry): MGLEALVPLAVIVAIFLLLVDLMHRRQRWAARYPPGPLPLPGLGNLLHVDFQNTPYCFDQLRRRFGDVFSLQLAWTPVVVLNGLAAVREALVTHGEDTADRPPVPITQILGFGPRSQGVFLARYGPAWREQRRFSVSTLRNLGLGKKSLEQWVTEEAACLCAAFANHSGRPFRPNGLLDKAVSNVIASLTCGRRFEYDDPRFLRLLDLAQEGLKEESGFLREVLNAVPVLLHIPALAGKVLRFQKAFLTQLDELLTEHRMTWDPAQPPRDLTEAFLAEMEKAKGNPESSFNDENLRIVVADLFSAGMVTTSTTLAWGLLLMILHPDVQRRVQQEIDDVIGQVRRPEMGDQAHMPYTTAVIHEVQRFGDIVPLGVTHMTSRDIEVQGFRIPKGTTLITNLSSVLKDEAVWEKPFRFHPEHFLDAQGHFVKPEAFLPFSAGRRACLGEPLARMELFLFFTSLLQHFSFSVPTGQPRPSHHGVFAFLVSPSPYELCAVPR

[1] = biological target: T1, Signal transducer and activator of transcription 3 (Homo sapiens, UniProt P40763); test: Inhibition of STAT3 in human Capan-2 cells assessed as inhibition of IL-6 stimulated STAT3 phosphorylation at Tyr 705 at 1 to 30 nM by western blot assay; format: cell-based; conditions: dose 1-30 nM, DDE = dose-dependent effect
T1 sequence (P40763 whole entry): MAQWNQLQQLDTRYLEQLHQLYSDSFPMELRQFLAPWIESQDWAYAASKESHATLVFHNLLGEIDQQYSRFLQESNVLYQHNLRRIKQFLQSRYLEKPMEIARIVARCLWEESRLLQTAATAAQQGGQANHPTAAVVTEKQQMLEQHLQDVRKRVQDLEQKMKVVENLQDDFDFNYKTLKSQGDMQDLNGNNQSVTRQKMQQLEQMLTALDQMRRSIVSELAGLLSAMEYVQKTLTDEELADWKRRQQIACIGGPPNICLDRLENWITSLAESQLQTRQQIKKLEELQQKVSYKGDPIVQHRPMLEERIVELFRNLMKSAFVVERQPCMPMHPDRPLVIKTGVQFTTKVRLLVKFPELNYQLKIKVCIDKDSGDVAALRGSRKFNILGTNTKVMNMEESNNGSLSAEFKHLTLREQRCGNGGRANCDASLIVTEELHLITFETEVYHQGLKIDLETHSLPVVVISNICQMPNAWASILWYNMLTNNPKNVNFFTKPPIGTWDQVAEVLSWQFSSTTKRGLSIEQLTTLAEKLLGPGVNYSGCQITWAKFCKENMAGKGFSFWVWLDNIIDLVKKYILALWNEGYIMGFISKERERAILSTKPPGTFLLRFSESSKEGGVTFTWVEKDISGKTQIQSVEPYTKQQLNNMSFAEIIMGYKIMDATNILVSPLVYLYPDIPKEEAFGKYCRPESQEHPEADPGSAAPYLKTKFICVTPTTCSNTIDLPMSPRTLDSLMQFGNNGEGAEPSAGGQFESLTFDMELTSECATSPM

[2] = biological target: T1, Signal transducer and activator of transcription 3; test: Inhibition of STAT3 in human BXPC-3 cells assessed as inhibition of IL-6 stimulated STAT3 nuclear translocation by immunofluorescent assay; format: cell-based
BXPC-3 [3] = test: Inhibition of mitochondrial respiration in human BXPC-3 cells at 1 to 30 nM incubated for 1 hr by seahorse XF96 flux analyzer; format: functional, cell-based; conditions: dose 1-30 nM, DDE = dose-dependent effect
[4] = Toxicity in BALB/c mouse xenografted with human BXPC-3 cells assessed as effect on spleen at 30 mg/kg,po administrated once daily for 8 weeks by H and E staining based microscopic analysis; format: organism-based; conditions: in vivo, 1344 h
[5] = biological target: T1, Signal transducer and activator of transcription 3; test: Inhibition of STAT3 in human BXPC-3 cells assessed as inhibition of STAT3 phosphorylation at Ser 727 at 10 nM incubated for 22 to 24 hrs by western blot analysis; format: cell-based; conditions: time 22-24 hrs
[6] = AUC (0-24hrs) in BALB/c mouse at 10 mg/kg,po measured upto 24 hrs by LC-MS/MS analysis; format: ADME, organism-based; parameters: dose 10 mg/kg, time < 24 hrs, route po; conditions: in vivo
[7] = biological target: T1, Signal transducer and activator of transcription 3; test: Inhibition of STAT3 in human BXPC-3 cells assessed as reduction of Cyclin D1 expression at 1 to 30 nM incubated for 22 to 24 hrs by western blot analysis; format: cell-based; conditions: dose 1-30 nM, time 22-24 hrs, DDE = dose-dependent effect
[8] = Microsomal stability in human liver microsomes assessed as intrinsic clearance incubated upto 40 mins in presence of NADPH by LC-MS/MS analysis; format: ADME, Microsome; conditions: read-out: CLH
Mus musculus [9] = test: In vivo inhibition of STAT3 in BALB/c mouse xenografted with human BXPC-3 cells assessed as inhibition of STAT3 phosphorylation at Tyr 705 at 30 mg/kg,po administrated once daily for 8 weeks by immunohistochemical analysis; format: functional, organism-based
CFPAC-1 [10] = test: Inhibition of mitochondrial respiration in human CFPAC-1 cells assessed as reduction in maximal respiration rate at 1 to 30 nM incubated for 1 hr by seahorse XF96 flux analyzer; format: functional, cell-based; conditions: dose 1-30 nM, DDE = dose-dependent effect
[11] = biological target: Mitogen-activated protein kinase 8 (Homo sapiens, UniProt P45983); test: Inhibition of JNK1 (unknown origin)
Chain of Mitogen-activated protein kinase 8 (P45983 whole entry): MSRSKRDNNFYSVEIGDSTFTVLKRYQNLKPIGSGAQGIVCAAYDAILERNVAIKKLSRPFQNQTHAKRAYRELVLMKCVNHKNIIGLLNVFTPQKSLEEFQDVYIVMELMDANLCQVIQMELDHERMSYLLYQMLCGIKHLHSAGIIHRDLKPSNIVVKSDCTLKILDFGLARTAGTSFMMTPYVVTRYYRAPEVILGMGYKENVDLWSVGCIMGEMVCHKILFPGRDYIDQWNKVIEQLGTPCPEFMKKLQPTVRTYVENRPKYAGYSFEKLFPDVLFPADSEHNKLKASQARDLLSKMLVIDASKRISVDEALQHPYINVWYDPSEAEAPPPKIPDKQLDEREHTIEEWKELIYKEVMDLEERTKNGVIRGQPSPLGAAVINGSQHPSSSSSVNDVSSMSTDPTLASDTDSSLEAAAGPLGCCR

BXPC-3 [12] = test: Antitumor activity against human BXPC-3 cells xenografted BALB/c mouse model assessed as reduction in Ki67 expression at 10 mg/kg,po administrated once daily for 8 weeks by immunohistochemical analysis; format: functional, organism-based
[13] = Half life in BALB/c mouse at 10 mg/kg,po measured upto 24 hrs by LC-MS/MS analysis; format: ADME, organism-based; conditions: in vivo
[14] = Microsomal stability in rat liver microsomes assessed as compound remaining incubated for 60 mins in presence of NADPH by LC-MS/MS analysis; format: ADME, Microsome; conditions: read-out: Stability
[15] = biological target: T2, Mitogen-activated protein kinase 13 (Homo sapiens, UniProt O15264); test: Inhibition of p38delta (unknown origin)
T2 sequence (O15264 whole entry): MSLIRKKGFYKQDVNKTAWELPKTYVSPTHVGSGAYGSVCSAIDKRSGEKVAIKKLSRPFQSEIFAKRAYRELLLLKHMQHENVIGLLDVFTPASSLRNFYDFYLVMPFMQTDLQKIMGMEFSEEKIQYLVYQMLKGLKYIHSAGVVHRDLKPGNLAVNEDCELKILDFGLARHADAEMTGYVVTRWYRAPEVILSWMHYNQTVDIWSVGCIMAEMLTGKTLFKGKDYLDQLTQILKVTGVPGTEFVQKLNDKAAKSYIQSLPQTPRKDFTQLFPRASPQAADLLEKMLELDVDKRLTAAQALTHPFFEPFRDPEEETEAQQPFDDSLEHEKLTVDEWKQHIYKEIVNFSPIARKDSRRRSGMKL

[16] = Toxicity in BALB/c mouse xenografted with human BXPC-3 cells assessed as effect on kidney at 30 mg/kg,po administrated once daily for 8 weeks by H and E staining based microscopic analysis; format: organism-based; conditions: in vivo, 1344 h
[17] = AUC (0-infinity) in BALB/c mouse at 1 mg/kg,iv measured upto 24 hrs by LC-MS/MS analysis; format: ADME, organism-based; parameters: dose 1 mg/kg, time < 24 hrs, route iv; conditions: in vivo
[18] = Microsomal stability in human liver microsomes assessed as half life incubated upto 40 mins in presence of NADPH by LC-MS/MS analysis; format: ADME, Microsome
[19] = Clearance at steady state in BALB/c mouse at 1 mg/kg,iv measured upto 24 hrs by LC-MS/MS analysis; format: ADME, organism-based; conditions: BALB/c, in vivo
[20] = biological target: T1, Signal transducer and activator of transcription 3; test: Inhibition of STAT3 in human Capan-2 cells assessed as inhibition of STAT3 phosphorylation at Ser 727 at 30 nM incubated for 4 to 24 hrs by western blot analysis; format: cell-based; conditions: time 4-24 hrs, TDE = time-dependent effect
[21] = Toxicity in BALB/c mouse xenografted with human BXPC-3 cells assessed as effect on liver at 30 mg/kg,po administrated once daily for 8 weeks by H and E staining based microscopic analysis; format: organism-based; conditions: in vivo, 1344 h
[22] = biological target: T1, Signal transducer and activator of transcription 3; test: Inhibition of STAT3 in human Capan-2 cells assessed as inhibition of STAT3 phosphorylation at Ser 727 at 10 nM incubated for 22 to 24 hrs by western blot analysis; format: cell-based; conditions: time 22-24 hrs
[23] = biological target: T1, Signal transducer and activator of transcription 3; test: Inhibition of STAT3 in human Capan-2 cells assessed as inhibition of STAT3 phosphorylation at Tyr 705 at 30 nM incubated for 4 to 24 hrs by western blot analysis; format: cell-based; conditions: time 4-24 hrs, TDE = time-dependent effect
[24] = biological target: T1, Signal transducer and activator of transcription 3; test: Inhibition of STAT3 in human BXPC-3 cells assessed as inhibition of IL-6 stimulated cytoplasmic STAT3 phosphorylation at Tyr 705 at 1 to 30 nM by western blot assay; format: cell-based; conditions: dose 1-30 nM
[25] = Half life in BALB/c mouse at 1 mg/kg,iv measured upto 24 hrs by LC-MS/MS analysis; format: ADME, organism-based; conditions: in vivo
Mus musculus [26] = test: In vivo inhibition of STAT3 in BALB/c mouse xenografted with human BXPC-3 cells assessed as inhibition of STAT3 phosphorylation at Ser 727 at 30 mg/kg,po administrated once daily for 8 weeks by immunohistochemical analysis; format: functional, organism-based
[27] = biological target: T1, Signal transducer and activator of transcription 3; test: Thermal stabilization of STAT3 in human BXPC-3 cells at 10 microM at 42.9 degreeC incubated for 1 hrs by cellular thermal shift assay; format: cell-based
CFPAC-1 [28] = test: Inhibition of mitochondrial respiration in human CFPAC-1 cells assessed as reduction in oxygen consumption rate at 1 to 30 nM incubated for 1 hr by seahorse XF96 flux analyzer; format: functional, cell-based; conditions: dose 1-30 nM, DDE = dose-dependent effect
[29] = Toxicity in BALB/c mouse xenografted with human BXPC-3 cells assessed as effect on lung at 10 mg/kg,po administrated once daily for 8 weeks by H and E staining based microscopic analysis; format: organism-based; conditions: in vivo, 1344 h

Question: Which results are given for `COc1ccc(-c2noc(-c3cnc(Oc4ccc5cc(C(=O)N6CCN(Cc7ccc(OCC(F)(F)F)cc7)CC6)n(C)c5c4)cn3)n2)cc1`?
Answer: IC50 (Capan-2): 0.0019 µM; IC50 (Cytochrome P450 2D6): > 50 µM; inhibition [1]: Dde; inhibition [2]: Active; inhibition (BXPC-3 [3]): Dde; Activity [4]: Non-Toxic; inhibition [5]: Active; AUC(0-t) at 24 h [6]: 27600 ng·h/mL; inhibition [7]: Dde; microsomal CLint [8]: 18.3 µL/min/mg; inhibition (Mus musculus [9]): Active; inhibition (CFPAC-1 [10]): Dde; IC50 [11]: > 10 µM; Activity (BXPC-3 [12]): Active; half-life [13]: 9.4 h; remaining at 1 h [14]: 60.5%; IC50 [15]: > 10 µM; Activity [16]: Non-Toxic; AUC(0-inf) [17]: 11600 ng·h/mL; half-life [18]: 1.26 h; clearance [19]: 1.43 mL/min/kg; inhibition [20]: Tde; Activity [21]: Non-Toxic; inhibition [22]: Active; inhibition [23]: Tde; inhibition [24]: Active; half-life [25]: 10.2 h; inhibition (Mus musculus [26]): Active; Activity [27]: Active; inhibition (CFPAC-1 [28]): Dde; Activity [29]: Non-Toxic
